assay: The drug is tested on Blautia hansenii strain: DSM20583 for biotransformation. The drug concentrations were measured before and after a 12-h incubation by liquid-chromatography-coupled mass spectrometry (LC–MS); settings: 2 µM

Compound	Bacterial Biotransformation
CNC(=C[N+](=O)[O-])NCCSCc1csc(CN(C)C)n1 [NIZATIDINE]	Compound metabolized
OC(CCN1CCCCC1)(c1ccccc1)C1CC2C=CC1C2 (configuration not stated) [BIPERIDEN]	Compound NOT metabolized
Cc1nc2n(c(=O)c1CCN1CCC(c3noc4cc(F)ccc34)CC1)CCCC2O (configuration not stated) [PALIPERIDONE]	Compound metabolized

settings: bacteroides thetaiotaomicron, 12 h, 2 µM
Description: The drug is tested on Bacteroides thetaiotaomicron strain: 7330 for biotransformation. The drug concentrations were measured before and after a 12-h incubation by liquid-chromatography-coupled mass spectrometry (LC–MS)

Compound	Bacterial Biotransformation
CNC(=C[N+](=O)[O-])NCCSCc1csc(CN(C)C)n1 [NIZATIDINE]	Compound metabolized
OC(CCN1CCCCC1)(c1ccccc1)C1CC2C=CC1C2 (configuration not stated) [BIPERIDEN]	Compound NOT metabolized
Cc1nc2n(c(=O)c1CCN1CCC(c3noc4cc(F)ccc34)CC1)CCCC2O (configuration not stated) [PALIPERIDONE]	Compound NOT metabolized

assay: The drug is tested on Dorea formicigenerans strain: ATCC27755 for biotransformation. The drug concentrations were measured before and after a 12-h incubation by liquid-chromatography-coupled mass spectrometry (LC–MS); settings: 2 µM

Compound	Bacterial Biotransformation
CNC(=C[N+](=O)[O-])NCCSCc1csc(CN(C)C)n1 [NIZATIDINE]	Compound metabolized
OC(CCN1CCCCC1)(c1ccccc1)C1CC2C=CC1C2 (configuration not stated) [BIPERIDEN]	Compound NOT metabolized
Cc1nc2n(c(=O)c1CCN1CCC(c3noc4cc(F)ccc34)CC1)CCCC2O (configuration not stated) [PALIPERIDONE]	Compound metabolized

assay: The drug is tested on Bifidobacterium breve strain: DSM20213 for biotransformation. The drug concentrations were measured before and after a 12-h incubation by liquid-chromatography-coupled mass spectrometry (LC–MS); settings: 2 µM

Compound	Bacterial Biotransformation
CNC(=C[N+](=O)[O-])NCCSCc1csc(CN(C)C)n1 [NIZATIDINE]	Compound metabolized
OC(CCN1CCCCC1)(c1ccccc1)C1CC2C=CC1C2 (configuration not stated) [BIPERIDEN]	Compound NOT metabolized
Cc1nc2n(c(=O)c1CCN1CCC(c3noc4cc(F)ccc34)CC1)CCCC2O (configuration not stated) [PALIPERIDONE]	Compound metabolized

assay: The drug is tested on Subdoligranulum variabile strain: DSM15176 for biotransformation. The drug concentrations were measured before and after a 12-h incubation by liquid-chromatography-coupled mass spectrometry (LC–MS); settings: 2 µM

Compound	Bacterial Biotransformation
CNC(=C[N+](=O)[O-])NCCSCc1csc(CN(C)C)n1 [NIZATIDINE]	Compound metabolized
OC(CCN1CCCCC1)(c1ccccc1)C1CC2C=CC1C2 (configuration not stated) [BIPERIDEN]	Compound NOT metabolized
Cc1nc2n(c(=O)c1CCN1CCC(c3noc4cc(F)ccc34)CC1)CCCC2O (configuration not stated) [PALIPERIDONE]	Compound metabolized

assay: The drug is tested on Escherichia coli strain: BW25113 for biotransformation. The drug concentrations were measured before and after a 12-h incubation by liquid-chromatography-coupled mass spectrometry (LC–MS); settings: 2 µM

Compound	Bacterial Biotransformation
CNC(=C[N+](=O)[O-])NCCSCc1csc(CN(C)C)n1 [NIZATIDINE]	Compound NOT metabolized
OC(CCN1CCCCC1)(c1ccccc1)C1CC2C=CC1C2 (configuration not stated) [BIPERIDEN]	Compound NOT metabolized
Cc1nc2n(c(=O)c1CCN1CCC(c3noc4cc(F)ccc34)CC1)CCCC2O (configuration not stated) [PALIPERIDONE]	Compound metabolized

settings: roseburia intestinalis, 12 h, 2 µM
Description: The drug is tested on Roseburia intestinalis strain: L1-82 for biotransformation. The drug concentrations were measured before and after a 12-h incubation by liquid-chromatography-coupled mass spectrometry (LC–MS)

Compound	Bacterial Biotransformation
CNC(=C[N+](=O)[O-])NCCSCc1csc(CN(C)C)n1 [NIZATIDINE]	Compound NOT metabolized
OC(CCN1CCCCC1)(c1ccccc1)C1CC2C=CC1C2 (configuration not stated) [BIPERIDEN]	Compound NOT metabolized
Cc1nc2n(c(=O)c1CCN1CCC(c3noc4cc(F)ccc34)CC1)CCCC2O (configuration not stated) [PALIPERIDONE]	Compound metabolized

settings: victivallis vadensis, 12 h, 2 µM
Description: The drug is tested on Victivallis vadensis strain: ATCC BAA-548 for biotransformation. The drug concentrations were measured before and after a 12-h incubation by liquid-chromatography-coupled mass spectrometry (LC–MS)

Compound	Bacterial Biotransformation
CNC(=C[N+](=O)[O-])NCCSCc1csc(CN(C)C)n1 [NIZATIDINE]	Compound NOT metabolized
OC(CCN1CCCCC1)(c1ccccc1)C1CC2C=CC1C2 (configuration not stated) [BIPERIDEN]	Compound NOT metabolized
Cc1nc2n(c(=O)c1CCN1CCC(c3noc4cc(F)ccc34)CC1)CCCC2O (configuration not stated) [PALIPERIDONE]	Compound NOT metabolized

assay: The drug is tested on Bacteroides sp. WH2 strain: WH2 for biotransformation. The drug concentrations were measured before and after a 12-h incubation by liquid-chromatography-coupled mass spectrometry (LC–MS); settings: bacteroides sp. wh2, 12 h, 2 µM

Compound	Bacterial Biotransformation
OC(CCN1CCCCC1)(c1ccccc1)C1CC2C=CC1C2 (configuration not stated) [BIPERIDEN]	Compound NOT metabolized
Cc1nc2n(c(=O)c1CCN1CCC(c3noc4cc(F)ccc34)CC1)CCCC2O (configuration not stated) [PALIPERIDONE]	Compound NOT metabolized

assay: The drug is tested on Blautia luti strain: DSM14534 for biotransformation. The drug concentrations were measured before and after a 12-h incubation by liquid-chromatography-coupled mass spectrometry (LC–MS); format: ADME; set-up: dose 2 uM, timepoint 0 vs 12 hours; settings: 2 µM

Compound	Bacterial Biotransformation
CNC(=C[N+](=O)[O-])NCCSCc1csc(CN(C)C)n1 [NIZATIDINE]	Compound metabolized
OC(CCN1CCCCC1)(c1ccccc1)C1CC2C=CC1C2 (configuration not stated) [BIPERIDEN]	Compound NOT metabolized
Cc1nc2n(c(=O)c1CCN1CCC(c3noc4cc(F)ccc34)CC1)CCCC2O (configuration not stated) [PALIPERIDONE]	Compound metabolized

assay: The drug is tested on Collinsella intestinalis strain: DSM13280 for biotransformation. The drug concentrations were measured before and after a 12-h incubation by liquid-chromatography-coupled mass spectrometry (LC–MS); settings: 2 µM

Compound	Bacterial Biotransformation
CNC(=C[N+](=O)[O-])NCCSCc1csc(CN(C)C)n1 [NIZATIDINE]	Compound metabolized
OC(CCN1CCCCC1)(c1ccccc1)C1CC2C=CC1C2 (configuration not stated) [BIPERIDEN]	Compound NOT metabolized
Cc1nc2n(c(=O)c1CCN1CCC(c3noc4cc(F)ccc34)CC1)CCCC2O (configuration not stated) [PALIPERIDONE]	Compound NOT metabolized

assay: The drug is tested on Clostridium asparagiforme strain: DSM15981 for biotransformation. The drug concentrations were measured before and after a 12-h incubation by liquid-chromatography-coupled mass spectrometry (LC–MS); format: ADME; set-up: dose 2 uM, timepoint 0 vs 12 hours; settings: enterocloster asparagiformis, 2 µM

Compound	Bacterial Biotransformation
CNC(=C[N+](=O)[O-])NCCSCc1csc(CN(C)C)n1 [NIZATIDINE]	Compound metabolized
OC(CCN1CCCCC1)(c1ccccc1)C1CC2C=CC1C2 (configuration not stated) [BIPERIDEN]	Compound NOT metabolized
Cc1nc2n(c(=O)c1CCN1CCC(c3noc4cc(F)ccc34)CC1)CCCC2O (configuration not stated) [PALIPERIDONE]	Compound metabolized

assay: The drug is tested on Eubacterium ventriosum strain: ATCC27560 for biotransformation. The drug concentrations were measured before and after a 12-h incubation by liquid-chromatography-coupled mass spectrometry (LC–MS); format: ADME; set-up: dose 2 uM, timepoint 0 vs 12 hours; settings: 2 µM

Compound	Bacterial Biotransformation
CNC(=C[N+](=O)[O-])NCCSCc1csc(CN(C)C)n1 [NIZATIDINE]	Compound metabolized
OC(CCN1CCCCC1)(c1ccccc1)C1CC2C=CC1C2 (configuration not stated) [BIPERIDEN]	Compound NOT metabolized

settings: segatella copri, 12 h, 2 µM
Description: The drug is tested on Prevotella copri strain: DSM18205 for biotransformation. The drug concentrations were measured before and after a 12-h incubation by liquid-chromatography-coupled mass spectrometry (LC–MS)

Compound	Bacterial Biotransformation
CNC(=C[N+](=O)[O-])NCCSCc1csc(CN(C)C)n1 [NIZATIDINE]	Compound metabolized
OC(CCN1CCCCC1)(c1ccccc1)C1CC2C=CC1C2 (configuration not stated) [BIPERIDEN]	Compound NOT metabolized
Cc1nc2n(c(=O)c1CCN1CCC(c3noc4cc(F)ccc34)CC1)CCCC2O (configuration not stated) [PALIPERIDONE]	Compound metabolized

assay: The drug is tested on Bacteroides fragilis strain: HMW610 for biotransformation. The drug concentrations were measured before and after a 12-h incubation by liquid-chromatography-coupled mass spectrometry (LC–MS); settings: 2 µM

Compound	Bacterial Biotransformation
CNC(=C[N+](=O)[O-])NCCSCc1csc(CN(C)C)n1 [NIZATIDINE]	Compound metabolized
Cc1nc2n(c(=O)c1CCN1CCC(c3noc4cc(F)ccc34)CC1)CCCC2O (configuration not stated) [PALIPERIDONE]	Compound NOT metabolized

settings: bacteroides eggerthii, 12 h, 2 µM
Description: The drug is tested on Bacteroides eggerthii strain: DSM20697 for biotransformation. The drug concentrations were measured before and after a 12-h incubation by liquid-chromatography-coupled mass spectrometry (LC–MS)

Compound	Bacterial Biotransformation
CNC(=C[N+](=O)[O-])NCCSCc1csc(CN(C)C)n1 [NIZATIDINE]	Compound metabolized
OC(CCN1CCCCC1)(c1ccccc1)C1CC2C=CC1C2 (configuration not stated) [BIPERIDEN]	Compound NOT metabolized
Cc1nc2n(c(=O)c1CCN1CCC(c3noc4cc(F)ccc34)CC1)CCCC2O (configuration not stated) [PALIPERIDONE]	Compound metabolized

settings: akkermansia muciniphila, 12 h, 2 µM
Description: The drug is tested on Akkermansia muciniphila strain: ATCC BAA-835 for biotransformation. The drug concentrations were measured before and after a 12-h incubation by liquid-chromatography-coupled mass spectrometry (LC–MS)

Compound	Bacterial Biotransformation
CNC(=C[N+](=O)[O-])NCCSCc1csc(CN(C)C)n1 [NIZATIDINE]	Compound NOT metabolized
OC(CCN1CCCCC1)(c1ccccc1)C1CC2C=CC1C2 (configuration not stated) [BIPERIDEN]	Compound NOT metabolized
Cc1nc2n(c(=O)c1CCN1CCC(c3noc4cc(F)ccc34)CC1)CCCC2O (configuration not stated) [PALIPERIDONE]	Compound metabolized

settings: bacteroides thetaiotaomicron, 12 h, 2 µM; remark: another data set of the same source
Description: The drug is tested on Bacteroides thetaiotaomicron strain: VPI-5482 for biotransformation. The drug concentrations were measured before and after a 12-h incubation by liquid-chromatography-coupled mass spectrometry (LC–MS)

Compound	Bacterial Biotransformation
CNC(=C[N+](=O)[O-])NCCSCc1csc(CN(C)C)n1 [NIZATIDINE]	Compound NOT metabolized
OC(CCN1CCCCC1)(c1ccccc1)C1CC2C=CC1C2 (configuration not stated) [BIPERIDEN]	Compound NOT metabolized
Cc1nc2n(c(=O)c1CCN1CCC(c3noc4cc(F)ccc34)CC1)CCCC2O (configuration not stated) [PALIPERIDONE]	Compound NOT metabolized

assay: The drug is tested on Bacteroides vulgatus strain: ATCC8482 for biotransformation. The drug concentrations were measured before and after a 12-h incubation by liquid-chromatography-coupled mass spectrometry (LC–MS); settings: phocaeicola vulgatus, 2 µM

Compound	Bacterial Biotransformation
CNC(=C[N+](=O)[O-])NCCSCc1csc(CN(C)C)n1 [NIZATIDINE]	Compound metabolized
OC(CCN1CCCCC1)(c1ccccc1)C1CC2C=CC1C2 (configuration not stated) [BIPERIDEN]	Compound metabolized
Cc1nc2n(c(=O)c1CCN1CCC(c3noc4cc(F)ccc34)CC1)CCCC2O (configuration not stated) [PALIPERIDONE]	Compound metabolized

assay: The drug is tested on Bacteroides cellulosilyticus strain: DSM14838 for biotransformation. The drug concentrations were measured before and after a 12-h incubation by liquid-chromatography-coupled mass spectrometry (LC–MS); settings: 2 µM

Compound	Bacterial Biotransformation
CNC(=C[N+](=O)[O-])NCCSCc1csc(CN(C)C)n1 [NIZATIDINE]	Compound metabolized
OC(CCN1CCCCC1)(c1ccccc1)C1CC2C=CC1C2 (configuration not stated) [BIPERIDEN]	Compound NOT metabolized
Cc1nc2n(c(=O)c1CCN1CCC(c3noc4cc(F)ccc34)CC1)CCCC2O (configuration not stated) [PALIPERIDONE]	Compound metabolized

From ChEMBL document CHEMBL5303573, “Mapping human microbiome drug metabolism by gut bacteria and their genes” (Nature, 2019)
